Patent US12594277B2, “Macrocyclic ULK1/2 inhibitors” (SALK INSTITUTE FOR BIOLOGICAL STUDIES, priority 2020, dated 2026)

Experiments:
[1] = molecular target: T1, recombinant human ULK1 protein (1-649) (Homo sapiens, UniProt O75385); assay: ULK1 inhibition assay (ADP-Glo); assay type: biochemical; conditions: 2 ug/mL ULK1, 80 ug/mL myelin basic protein, 25 uM ATP, assessed after one hour
T1 construct: recombinant human ULK1 protein (1-649, SignalChem #U01-11G); purchased SignalChem U01-11G
T1 sequence (O75385 1-649): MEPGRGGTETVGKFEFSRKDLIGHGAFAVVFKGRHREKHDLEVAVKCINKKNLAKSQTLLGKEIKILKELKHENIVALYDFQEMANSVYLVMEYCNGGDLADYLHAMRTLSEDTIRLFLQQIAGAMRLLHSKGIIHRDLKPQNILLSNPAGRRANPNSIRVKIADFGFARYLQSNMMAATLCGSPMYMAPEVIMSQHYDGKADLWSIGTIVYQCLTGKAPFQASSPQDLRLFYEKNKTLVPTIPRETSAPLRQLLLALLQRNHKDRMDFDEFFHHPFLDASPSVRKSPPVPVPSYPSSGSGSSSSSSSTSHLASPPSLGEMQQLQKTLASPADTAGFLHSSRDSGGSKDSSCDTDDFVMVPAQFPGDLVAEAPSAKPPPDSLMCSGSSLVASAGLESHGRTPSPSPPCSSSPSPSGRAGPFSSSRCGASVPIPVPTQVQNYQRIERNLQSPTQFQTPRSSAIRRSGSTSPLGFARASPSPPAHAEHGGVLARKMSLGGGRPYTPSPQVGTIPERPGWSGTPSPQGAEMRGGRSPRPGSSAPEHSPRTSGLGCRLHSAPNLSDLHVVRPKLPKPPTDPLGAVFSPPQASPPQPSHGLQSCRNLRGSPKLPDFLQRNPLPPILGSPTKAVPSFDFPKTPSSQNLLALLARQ
Description: IC50s measured by ADP-Glo assay are represented nM, with A representing IC50<20 nM, B representing IC50>20 nM. NT indicates the compound was not tested. ULK1 inhibition assays were performed in a 5 uL reaction volume containing 2 ug/mL recombinant human ULK1 protein (1-649, SignalChem #U01-11G) and 80 ug/mL myelin basic protein (MBP, Sigma-Aldrich #M1891) in the presence of 25 uM ATP (Sigma-Aldrich A7699). ULK 1 inhibition was assessed after one hour. Compounds were tested in triplicate in a 16-dose IC50 mode with 3-fold serial dilution and a starting dose of 30 uM. Staurosporine, a non-selective protein kinase inhibitor, was used in the assay as a positive control. Three separate experiments were carried out.

[2] = molecular target: T2, NanoLuc-ULK1 fusion in HEK293T cells (Homo sapiens, UniProt O75385); assay: ULK1 NanoBRET assay; assay type: cell-based; conditions: HEK293T transfected with NanoLuc-ULK1 Fusion Vector, Tracer K-5, 2 h incubation
T2 construct: host or cells: HEK293T
T2 sequence (O75385 1-1050): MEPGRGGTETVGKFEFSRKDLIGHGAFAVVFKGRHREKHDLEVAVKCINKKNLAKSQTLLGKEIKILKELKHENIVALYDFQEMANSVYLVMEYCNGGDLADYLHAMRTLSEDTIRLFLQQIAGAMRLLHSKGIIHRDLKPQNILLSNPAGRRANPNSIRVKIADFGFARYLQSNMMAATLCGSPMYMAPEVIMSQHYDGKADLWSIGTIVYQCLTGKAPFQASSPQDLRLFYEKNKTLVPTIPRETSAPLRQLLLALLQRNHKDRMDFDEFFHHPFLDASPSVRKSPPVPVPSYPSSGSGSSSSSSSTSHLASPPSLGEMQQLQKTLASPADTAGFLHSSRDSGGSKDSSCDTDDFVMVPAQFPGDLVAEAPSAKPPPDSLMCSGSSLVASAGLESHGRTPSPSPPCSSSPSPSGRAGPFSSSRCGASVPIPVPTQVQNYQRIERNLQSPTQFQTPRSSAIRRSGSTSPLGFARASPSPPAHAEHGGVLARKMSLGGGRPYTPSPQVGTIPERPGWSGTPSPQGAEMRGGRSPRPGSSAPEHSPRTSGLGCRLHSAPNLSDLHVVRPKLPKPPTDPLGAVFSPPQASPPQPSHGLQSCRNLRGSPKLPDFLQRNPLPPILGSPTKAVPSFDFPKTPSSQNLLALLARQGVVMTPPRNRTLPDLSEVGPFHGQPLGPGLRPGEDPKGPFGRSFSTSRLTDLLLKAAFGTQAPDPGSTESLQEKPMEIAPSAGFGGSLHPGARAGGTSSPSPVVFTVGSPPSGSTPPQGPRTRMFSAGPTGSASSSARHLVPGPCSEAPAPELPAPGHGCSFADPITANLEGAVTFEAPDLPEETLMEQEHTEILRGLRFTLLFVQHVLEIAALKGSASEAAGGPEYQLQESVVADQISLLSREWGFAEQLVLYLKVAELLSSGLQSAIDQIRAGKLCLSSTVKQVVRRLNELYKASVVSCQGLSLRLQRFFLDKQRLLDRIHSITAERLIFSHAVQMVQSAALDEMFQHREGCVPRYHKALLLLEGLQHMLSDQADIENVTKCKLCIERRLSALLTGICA
Description: IC50s were also measured by ULK1 NanoBRET assay according to the following protocol: Human embryonic kidney cells (HEK293T) were transfected with NanoLuc®-ULK1 Fusion Vector (Promega #NV2211) using jetPRIME transfection reagent (Polyplus Transfection #114-15). Following 24 h, cells were trypsinized and resuspended in Opti-MEM® I (1×), Reduced Serum Medium (Gibco, #11058-021). Approximately, 7,000 cells per well (in 34 μL total volume) were replated into non-binding surface 384 well plates. Complete NanoBRET 20× Tracer K-5 reagent was prepared according to the manufacturer's directions and 2 μL were added to each well of the 384 plate (assay plate). The assay plate was mixed on an orbital shaker for 15 seconds at 700 rpm. Compounds were serially diluted at 200× final concentration in […], then diluted to 10× final concentration in assay media (Opti-MEM® I, Reduced Serum Medium). Next, 4 μL 10× test compounds were added to each well of the assay plate, followed by mixing at 700 rpm for 15 seconds. The assay plate was incubated for 2 h in a 37 C incubator with […] and then equilibrated to RT for 15 min. The 3× Complete Substrate plus Inhibitor Solution was prepared according to the manufacturer's directions with a concentration of Extracellular NanoLuc® Inhibitor of 60 μM to be used at a working concentration of 20 μM. The 3× Complete Substrate plus Inhibitor Solution was mixed and 20 μL per well was added to the assay plate and incubated at RT for 2-3 min. Donor emission wavelength (450 nm) and acceptor emission wavelength (610 nm) were measured using an assay compatible luminometer (see manufacturer's specifications).

| SMILES | IC50 [1] [nM] | IC50 [2] [nM] |
| --- | --- | --- |
| CNC(=O)c1ccc2cc1Nc1nc(ncc1C(F)(F)F)Nc1ccc(OC)c(c1)OC/C=C\CCO2 [Compound 21, (E)-1^4-methoxy-N-methyl-3^5-(trifluoromethyl)-6,12-dioxa-2,4-diaza-3(2,4)-pyrimidina-1,5(1,3)-dibenzenacyclododecaphan-9-ene-5^6-carboxamide] | > 20 | > 1000 |
| CNC(=O)c1ccc2cc1Nc1nc(ncc1C(F)(F)F)Nc1ccc(OC)c(c1)OCCCCCCO2 [Compound 14, 1^4-Methoxy-N-methyl-3^5-(trifluoromethyl)-6,13-dioxa-2,4-diaza-3(2,4)-pyrimidina-1,5(1,3)-dibenzenacyclotridecaphane-5^6-carboxamide] | > 20 | > 1000 |
| CNC(=O)c1ccc2cc1Nc1nc(ncc1C(F)(F)F)Nc1ccc(c(OC)c1)OC/C=C\CCCO2 [Compound 16, (Z)-5^3-methoxy-N-methyl-3^5-(trifluoromethyl)-6,13-dioxa-2,4-diaza-3(4,2)-pyrimidina-1(1,3),5(1,4)-dibenzenacyclotridecaphan-8-ene-1^6-carboxamide] | > 20 | > 1000 |
| CNC(=O)c1ccc2cc1Nc1nc(ncc1C(F)(F)F)Nc1ccc(OC)c(c1)OC/C=C/CCO2 [Compound 22, (Z)-1^4-methoxy-N-methyl-3^5-(trifluoromethyl)-6,12-dioxa-2,4-diaza-3(2,4)-pyrimidina-1,5(1,3)-dibenzenacyclododecaphan-9-ene-5^6-carboxamide] | > 20 | > 1000 |
| CNC(=O)c1ccc2cc1Nc1nc(ncc1C(F)(F)F)Nc1ccc(OC)c(c1)OCCCCCO2 [Compound 23, 1^4-methoxy-N-methyl-3^5-(trifluoromethyl)-6,12-dioxa-2,4-diaza-3(2,4)-pyrimidina-1,5(1,3)-dibenzenacyclododecaphane-5^6-carboxamide] | > 20 | > 1000 |

The next lines start with the values.

| IC50 [1] [nM] | IC50 [2] [nM] | SMILES |
| --- | --- | --- |
| < 20 | < 1000 | CNC(=O)c1cc2ccc1Nc1nc(ncc1C(F)(F)F)Nc1ccc(OC)c(c1)OC/C=C\CCCO2 [Compound 19, (Z)-1^4-methoxy-N-methyl-3^5-(trifluoromethyl)-6,13-dioxa-2,4-diaza-3(2,4)-pyrimidina-1(1,3),5(1,4)-dibenzenacyclotridecaphan-10-ene-5^2-carboxamide] |
| > 20 | > 1000 | CNC(=O)c1ccc2cc1Nc1nc(ncc1C(F)(F)F)Nc1ccc(c(OC)c1)OC/C=C/CCCO2 [Compound 15, (E)-5^3-methoxy-N-methyl-3^5-(trifluoromethyl)-6,13-dioxa-2,4-diaza-3(4,2)-pyrimidina-1(1,3),5(1,4)-dibenzenacyclotridecaphan-8-ene-1^6-carboxamide] |
| > 20 | > 1000 | CNC(=O)c1ccc2cc1Nc1nc(ncc1C(F)(F)F)Nc1ccc(c(OC)c1)OC/C=C/CCO2 [Compound 24, (E/Z)-5^3-Methoxy-N-methyl-3^5-(trifluoromethyl)-6,12-dioxa-2,4-diaza-3(4,2)-pyrimidina-1(1,3),5(1,4)-dibenzenacyclododecaphan-8-ene-1^6-carboxamide] |
| < 20 | > 1000 | CNC(=O)c1cc2ccc1Nc1nc(ncc1C(F)(F)F)Nc1ccc(OC)c(c1)OCCCCCCO2 [Compound 20, 1^4-Methoxy-N-methyl-3^5-(trifluoromethyl)-6,13-dioxa-2,4-diaza-3(2,4)-pyrimidina-1(1,3),5 (1,4)-dibenzenacyclotridecaphane-52-carboxamide] |
